In patent EP4685152A1, “PEPTIDE BINDING TO LAG-3 AND USE THEREOF” (Kyungpook National University Industry-Academic Cooperation …, priority 2023, dated 2024):

Key:
LAG-3 [1] = molecular target: T1, LAG-3 (Homo sapiens, UniProt P18627); assay: Peptide binding to stimulated Jurkat T cells by flow cytometry; type: cell-based; settings: FITC-labeled peptide 10 µM; Jurkat T cells stimulated with PMA, ionomycin, CQ compared to unstimulated control cells
T1 sequence (P18627 23-525): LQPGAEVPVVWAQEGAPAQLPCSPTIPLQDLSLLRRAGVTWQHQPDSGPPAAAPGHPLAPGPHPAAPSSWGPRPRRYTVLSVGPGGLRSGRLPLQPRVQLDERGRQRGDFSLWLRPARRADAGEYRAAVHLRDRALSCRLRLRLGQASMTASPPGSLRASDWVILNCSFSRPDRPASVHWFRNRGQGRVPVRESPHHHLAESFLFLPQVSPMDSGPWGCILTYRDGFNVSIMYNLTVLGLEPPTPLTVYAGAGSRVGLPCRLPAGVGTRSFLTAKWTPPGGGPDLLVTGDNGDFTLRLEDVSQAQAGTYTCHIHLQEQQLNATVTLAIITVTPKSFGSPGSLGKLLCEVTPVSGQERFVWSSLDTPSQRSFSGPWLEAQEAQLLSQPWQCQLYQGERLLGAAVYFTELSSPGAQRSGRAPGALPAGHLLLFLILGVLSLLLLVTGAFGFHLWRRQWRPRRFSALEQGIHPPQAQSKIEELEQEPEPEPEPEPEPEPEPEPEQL
Experimental: For flow cytometry, Jurkat T cells (1×10^6) stimulated with PMA (50 ng/ml), ionomycin (1 µg/ml), and CQ (100 µM) were harvested and suspended in culture medium containing 1% BSA for blocking at room temperature for 1 hour. Afterwards, the cells were further reacted with fluorescein isothiocyanate-labeled LAG-3 binding peptide (10 µM) at 4°C for 1 hour. After washing several times, 300 µl of cell suspension suspended in phosphate buffer was applied to Attune NxT flow cytometry (Thermo Fisher Scientific).
(§1) To determine the degree of binding of the peptide to LAG-3, a peptide labeled with a red fluorescent reagent was synthesized and treated in Hek-293T cells transfected with LAG-3 followed by observation under an immunofluorescence microscope. Non-transfected cells were used as a control group. Meanwhile, Jurkat T cells stimulated with PMA, ionomycin, and CQ to increase expression of LAG-3 were treated with the peptide, and binding was observed using a flow cytometer. Unstimulated Jurakt T cells were used as a control group.

LAG-3 [2] = molecular target: T1, LAG-3; assay: Competitive binding with LAG-3 blocking antibody, flow cytometry on stimulated Jurkat T cells; type: cell-based; settings: LAG-3 blocking antibody 10 µg/ml first, then peptide 10 µM, compared to untreated control group
Experimental: Similarly, for flow cytometry, Jurkat T cells (1×10^6) stimulated with PMA (50 ng/ml), ionomycin (1 µg/ml), and CQ (100 µM) were harvested and suspended in culture medium containing 1% BSA for 1 hour at room temperature to block nonspecific binding. Afterwards, cells were blocked with human LAG-3 blocking antibody (10 µg/ml) at 4°C for 30 minutes and then reacted with fluorescein isothiocyanate-conjugated peptide at a concentration of 10 µM at 4°C for 1 hour. After washing several times, 300 µl of cell suspension suspended in phosphate buffer was applied to Attune NxT flow cytometry (Thermo Fisher Scientific).

LAG-3 [3] = molecular target: T1, LAG-3; assay: Peptide binding to LAG-3-transfected cells by immunofluorescence microscopy; type: cell-based; parameters: GFP; host or cells: HEK-293T; settings: red fluorescent (TAMRA) peptide 25 µM; LAG-3-transfected Hek-293T cells compared to non-transfected control cells
Experimental: Hek-293T cells (1.25×10^5) were seeded in 4-well chamber slides, transfected with human LAG-3 plasmid, and […]. Non-transfected cells were used as a control group. The next day, cells were washed twice with phosphate buffer and reacted with 1% BSA at room temperature for 1 hour to reduce nonspecific binding of peptides. Afterwards, cells were reacted with TAMRA-conjugated peptide at a concentration of 25 µM at 4°C for 1 hour. After fixation, cells were washed, counterstained with DAPI, treated with an anti-fade reagent to preserve fluorescence, and analyzed using a confocal microscope (Nanoscope System).
as §1

LAG-3 [4] = molecular target: T1, LAG-3; assay: Competitive binding with LAG-3 blocking antibody, immunofluorescence microscopy on LAG-3-transfected cells; type: cell-based; parameters: GFP; host or cells: HEK-293T; settings: LAG-3-transfected Hek-293T cells; LAG-3 blocking antibody 10 µg/ml first, then peptide 25 µM; compared to group without antibody
Experimental: Hek-293T cells (1.25×10^5) were seeded in 4-well chamber slides and transfected with human LAG-3 plasmid, and the next day, the cells were washed twice with phosphate buffer and reacted with 1% BSA at room temperature for 1 hour to reduce nonspecific binding. Afterwards, cells were blocked with human LAG-3 blocking antibody (10 µg/ml) at 4°C for 30 minutes, and then reacted with TAMRA-conjugated peptide at a concentration of 25 µM at 4°C for 1 hour. After fixation, cells were washed, counterstained with DAPI, treated with an anti-fade reagent to preserve fluorescence, and analyzed using a confocal microscope (Nanoscope System).

[5] = molecular target: T2, recombinant LAG-3 protein (Homo sapiens, UniProt P18627); assay: Pull-down with biotin-peptide and streptavidin beads, immunoblotting; recombinant protein; type: binding; settings: biotin-labeled peptides, compared to the control group
T2 construct: purchased Acro Biosystems
T2 sequence (P18627 23-450 limits assumed): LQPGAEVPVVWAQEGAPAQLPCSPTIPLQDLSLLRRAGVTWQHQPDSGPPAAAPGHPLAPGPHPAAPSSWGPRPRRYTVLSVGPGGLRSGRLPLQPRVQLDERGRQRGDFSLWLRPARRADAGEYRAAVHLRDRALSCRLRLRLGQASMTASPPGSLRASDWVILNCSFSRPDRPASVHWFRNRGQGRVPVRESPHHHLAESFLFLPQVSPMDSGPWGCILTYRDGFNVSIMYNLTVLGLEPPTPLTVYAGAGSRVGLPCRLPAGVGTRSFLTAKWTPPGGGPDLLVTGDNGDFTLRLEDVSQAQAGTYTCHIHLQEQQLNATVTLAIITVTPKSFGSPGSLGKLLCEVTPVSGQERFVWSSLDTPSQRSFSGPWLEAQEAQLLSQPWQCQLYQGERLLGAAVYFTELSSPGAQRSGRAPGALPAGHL
Experimental: (§2) The binding specificity of the LAG-3 binding peptide was measured by pull-down analysis. After pull-down with LAG-3 binding peptide using human recombinant LAG-3 protein, it was applied to immunoblotting using LAG-3 antibody. In the same manner, cell lysates with LAG-3 overexpressed were […] using human LAG-3 plasmid DNA and then subjected to immunoblotting using LAG-3 antibodies.

[6] = molecular target: T3, cell lysate overexpressing LAG-3 (Homo sapiens, UniProt P18627); assay: Pull-down with biotin-peptide and streptavidin beads, immunoblotting; cell lysate; type: binding; settings: cell lysate overexpressing LAG-3, biotin-labeled peptides; compared to the control group
T3 construct: GFP; host or cells: HEK-293T
T3 sequence (P18627 23-525): T1 sequence (P18627 23-525)
Experimental: as §2

Jurkat T cells = assay: T-cell activation assay (IL-2 ELISA); type: cell-based, human; settings: stimulated Jurkat T cells under co-culture of HepG2 cells, HepG2 cell culture medium, or recombinant FGL-1 (10 µg/ml); peptide 50 µM, antibody 10 µg/ml; 24 hours
Experimental: Jurkat T cells (1×10^6) were inoculated into a T25 flask and stimulated for 24 hours using PMA (50 ng/ml), ionomycin (1 µg/ml), and CQ (100 µM). HepG2 cells (5×10^3) were inoculated in a 96-well plate to induce secretion of FGL-1 for 48 hours. To co-culture the two types of cells, stimulated Jurkat T cells (2.5×10^4) were mixed with HepG2 at a ratio of 1:5. Similarly, for indirect co-culture, stimulated Jurkat T cells (2.5×10^4) were mixed with HepG2 cell culture medium. Finally, to observe the direct effect, stimulated Jurkat T cells (2.5×10^4) were treated with recombinant FGL-1 (10 µg/ml) protein. […] Afterwards, culture was carried out for an additional 24 hours for reaction. Control peptides were also used for comparison. After each culture time, the supernatant was harvested, and IL-2 secretion was measured using an ELISA kit for measuring human IL-2.
Investigation was made on whether the interaction between FGL-1 secreted from HepG2 hepatoma cells and LAG-3 of T cells inhibits T cell activity and, if so, whether it is blocked by a LAG-3 binding peptide. For this purpose, in the first experiment, Jurkat T cells were cultured with stimulation for 24 hours using PMA, ionomycin, and CQ. HepG2 cells were cultured in 96-well plates for 48 hours for FGL-1 secretion. […]

[7] = system: MC38 mouse colon cancer cells; assay: In-vivo antitumor therapy, syngeneic MC38 mouse tumor model; parameters: species or system C57BL/6 mice; settings: compared to control group and phosphate buffer group; 10 mg/kg; peptide intravenously 6 times, antibody intraperitoneally 3 times
Experimental: 6-8-week-old C57BL/6 mice were purchased. Mice were bred and kept under the guidelines of the Institutional Animal Care and Use Committee (IACUC) of Kyungpook National University (2023-0184). Tumors were injected into the lower right flank of mice. For in-vivo antitumor treatment, mice were randomly selected and grouped when tumor size reached approximately 100-150 mm^3. Thereafter, the peptide was injected intravenously three times a week for two weeks at a dose of 10 mg/kg, and similarly the antibody was injected intraperitoneally three times at the same dose. Tumor size was measured using a digital caliper, and tumor volume was calculated using the formula (V = length × width^2 × 0.52) (where length (L) is the longest dimension, and width (W) is the shortest dimension, parallel to the mouse body). All mice were checked for ulcer severity after treatment, treatment was terminated when the tumor size reached approximately 3000 mm^3, and the mice were sacrificed.
To identify the anticancer effect in a syngeneic mouse tumor model, LAG-3 binding peptide was administered alone or in combination with PD-L1 antibody to mice in which tumors were induced using MC38 mouse colon cancer cells (FIG. 9a). […]

LAG-3 [8] = molecular target: T1, LAG-3; assay: Phage binding ELISA on LAG-3-transfected or non-transfected cells; type: cell-based; parameters: GFP; host or cells: HEK-293T; settings: phage clone 3 among 13 selected phage clones; transfected or non-transfected Hek-293T cells; OD 450 nm
Experimental: Hek-293T cells (2.5×10^4) were seeded in a 96-well plate and transfected with LAG-3 plasmid. Culture was performed for 48 hours. Non-transfected Hek-293T cells were used as a control group. Plates were blocked with 10 mg/ml BSA for 1 hour at room temperature. After washing the wells six times with Tris-buffered saline-Tween 20 (0.1%), 100 µl of phage clones (1×10^9 pfu/well) were added and reacted at 4°C for 1 hour. After washing, horse-radish peroxidase (HRP)-conjugated T7 tail fiber antibody (diluted 1:10,000 in blocking buffer) was added and reacted at room temperature for 1 hour. After washing the plate six more times, a substrate consisting of 3,3',5,5'-tetramethylbenzidine was added and reacted at room temperature for 10-15 minutes. The reaction was finally stopped by adding 100 µl of 2 M H2SO4 (stop solution), and the plates were analyzed at 450 nm with a microplate reader.

| Structure (SMILES) | binding of peptide to stimulated Jurkat T cells (LAG-3 [1]) | binding of peptide after LAG-3 blocking antibody (LAG-3 [2]) | binding of peptide to LAG-3 expressing cells (LAG-3 [3]) | binding strength of peptide after LAG-3 blocking antibody (LAG-3 [4]) | detection of LAG-3 protein after pull-down [5] | detection of LAG-3 proteins after pull-down [6] | IL-2 secretion (Jurkat T cells) | cancer growth, single administration [7] | cell binding by phage binding ELISA (LAG-3 [8]) |
| --- | --- | --- | --- | --- | --- | --- | --- | --- | --- |
| CC[C@H](C)[C@@H]1NC(=O)[C@@H](N)CSSC[C@@H](C(=O)O)NC(=O)[C@H](C(C)C)NC(=O)[C@H](C)NC(=O)[C@@H]2CCCN2C(=O)[C@H](CC(=O)O)NC(=O)[C@H](CC(N)=O)NC(=O)[C@H](CCCNC(=N)N)NC1=O [LAG3Pep-1] | more LAG-3Pep-1 and LAG-3Pep-2 peptides were bound | reduced | bind more strongly | reduced |  |  |  |  |  |
| CC(C)C[C@H](NC(=O)[C@@H](NC(=O)[C@H](CO)NC(=O)[C@@H](N)CS)C(C)C)C(=O)N[C@@H](CC(N)=O)C(=O)N[C@@H](C)C(=O)N[C@@H](CO)C(=O)NCC(=O)N[C@@H](CS)C(=O)O [LAG3Pep-2] | more LAG-3Pep-1 and LAG-3Pep-2 peptides were bound | reduced | bind more strongly | reduced | more detection of LAG-3 protein | more LAG-3 proteins were detected | significantly increased | partially inhibited | highest level of binding |
